This is an account of results in article PMC10779311, “Antileishmanial Activity, Toxicity and Mechanism of Action of Complexes of Sodium Usnate with Lanthanide Ions: Eu(III), Sm(III), Gd(III), Nd(III), La(III) and Tb(III)” (International Journal of Molecular Sciences, 2023).

Experiment [1] has as its system promastigotes of L. tropica. Also on record: method as in ref 18 Derici et al. Particulars: ref 18 Derici et al.; cited from earlier work.
The subject of experiment [2] is L. (L.) infantum promastigotes. More on the design: method as in ref 16 Luz et al. The following applies: ref 16 Luz et al.; cited from earlier work.
Experiment [3] deals with Trypanosoma cruzi epimastigotes. Also on record: method as in ref 45 Carvalho et al. Particulars: 30–50 μg·mL^−1; ref 45 Carvalho et al.; cited from earlier work.
In experiment [4] the test system is promastigotes of Leishmania major. Also on record: method as in ref 18 Derici et al. Particulars: ref 18 Derici et al.; cited from earlier work.
Experiment [5] has as its system L. (L.) infantum promastigotes. Also on record: method as in ref 16 Luz et al. The following applies: 25 μg·mL^−1; ref 16 Luz et al.; cited from earlier work.
The test system of experiment [6] is promastigotes of L. (L.) infantum. Also on record: method as in ref 18 Derici et al. Particulars: ref 18 Derici et al.; cited from earlier work.
Experiment [7] deals with L. (L.) amazonensis promastigote forms. The experiment in a line: Flow cytometry for mitochondrial membrane potential (TMRE). Type of experiment: cell-based, Leishmania (Leishmania) amazonensis.
In experiment [8] the test system is L. (L.) amazonensis intracellular amastigotes. The experiment in a line: In vitro antileishmanial activity on intracellular amastigotes in peritoneal macrophages. The experiment is classed as cell-based, Leishmania (Leishmania) amazonensis. How it is done:
Peritoneal macrophages were obtained from BALB/c mice in RPMI 1640 culture medium (Sigma-Aldrich® São Paulo, Brazil). After exclusion of inviable cells with trypan blue staining (Sigma-Aldrich® São Paulo, Brazil), cells were transferred to 24-well plates with 13 mm round glass coverslips (10^6 cells/well) and kept at 37 °C/5% CO2. After adhesion for one hour, cells were infected with promastigote forms of L. (L.) amazonensis in the stationary phase (4 × 10^6 cells/well). After 4 h of incubation, samples (complexes 1–7) were added in six replicates (6.25–50.0 µg·mL^−1). […] Coverslips were removed after 24 h, subjected to a dehydration battery with increasing concentrations of acetone: xylol and stained with Giemsa (Sigma-Aldrich®, São Paulo, Brazil) diluted 1:10 in distilled water. After mounting on slides, 200 cells per coverslip were analyzed by light microscopy and the average number of amastigotes/cells was calculated. IC50 was determined using a non-linear dose–response regression curve as described above. The concentrations of complexes were compared by Two-way ANOVA followed by the Tukey test.

The test system of experiment [9] is L. (L.) amazonensis promastigote forms. Nature of the experiment: Flow cytometry for apoptosis and membrane permeability (PE Annexin V / 7-AAD). Type of experiment: cell-based, Leishmania (Leishmania) amazonensis. The following applies: treatment at IC50. The source says: PE Annexin V staining precedes the loss of membrane integrity observed in the final stages of cell death, resulting from either apoptotic or necrotic processes. PE Annexin V is used in conjunction with the vital dye 7-Amino-Actinomycin (7-AAD) to identify early apoptotic cells (7-AAD negative, PE Annexin V positive). Viable cells with intact membranes exclude 7-AAD, but the membranes of dead and damaged cells are permeable to 7-AAD. Cells that are in late apoptosis or already dead are both PE Annexin V and 7-AAD positive. […] Heat-killed parasites (60 °C bath/10 min) were used as positive control, and untreated parasites were used as negative control. Promastigotes were stained with 5 µL of PE Annexin V and 5 µL 7-AAD (PE Annexin V Apoptosis Detection Kit I, BD Biosciences^TM, Franklin Lakes, NJ, USA) and immediately subjected to flow cytometric analysis (BD FACSCanto^TM II). Then, 10,000 events were captured in the region previously determined to correspond to the parasites. Fluorescence was quantified and histograms were generated.

Experiment [10] deals with L. (L.) amazonensis-infected macrophages. The experiment in a line: NO production by infected cells (Griess reaction). The experiment is classed as cell-based, BALB/c mice. Particulars: 24 h after treatment, lowest concentration 6.25 µg·mL^−1. How it is done: Nitric oxide (NO) production by infected and treated peritoneal macrophages was estimated in the supernatants from the intracellular amastigotes assay by the Griess reaction. Aliquots of the supernatants ([…]) were incubated with Griess reagent (1:1) for 10 min at room temperature. Absorbance was read on a microplate reader (HumanReader HS, Wiesbaden, Germany) at 550 nm. Conversion of nitrite (NO^−2) to micromolar (µM) was performed by comparing the samples to a standard curve obtained with known concentrations (1–10 µM) of sodium nitrite diluted in RPMI 1640 medium (Sigma-Aldrich® São Paulo, Brazil). The average and standard error of the mean (SEM) were calculated from three replicates. The data were analyzed using ANOVA and subsequently subjected to the Bonferroni test.

Experiment [11] has as its system L. (L.) amazonensis promastigote forms. The experiment in a line: In vitro antileishmanial activity on promastigote forms (MTT). Particulars: 72 h, MTT; read-out: L. amazonensis Promastigotes (Pro.) IC50. Type of experiment: cell-based, Leishmania (Leishmania) amazonensis.
A further experiment relates to NIH/3T3 fibroblasts. Nature of the experiment: Cytotoxicity in mammalian cells (sulforhodamine B). Type of experiment: cell-based. The following applies: 48 h, read-out: Fibroblasts NIH/3T3 (Fib.) IC50. How it is done: The cytotoxic effect of compounds 1–7 was evaluated on NIH/3T3 fibroblasts obtained from the Rio de Janeiro Cell Bank (Duque de Caxias, Brazil). Fibroblasts were seeded at […] in 96-well plates. After 24 h of fixation, cells were incubated for 48 h with 1–7 at 2.5–250 µg·mL^−1, in three replicates. Cell growth was evaluated using the sulforhodamine B colorimetric method, and the optical with absorbances read on the PT-READER microplate instrument (Spectramax 190, Molecular Devices, Sunnyvale, CA, USA) at 540 nm. […] The growth inhibition percentage-GI (%) of each test sample was calculated in Microsoft Office Excel 2007 software. IC50 was determined graphically in the Microcal Origin Version 6.00 program. The selectivity index (SI) was calculated as the ratio between the cytotoxicity on cells (IC50) and the activity on the parasite forms (IC50).

In brackets after ≈: the same amount, converted by molar mass.

Regarding `CC(=O)c1c(O)c(C)c(O)c2c1OC1=CC(=O)C(C(C)=O)C(=O)C12C` (centres unmarked) [usnic acid, 2,6-diacetyl-7,9-dihydroxy-8,9-dimethyl-1,3(2H,9bH)-dibenzofurandione], the “IC50/48 h on promastigotes” value was 21.06 mg/L (≈ 61.2 µM) in [1], 10.76 mg/L (≈ 31.3 µM) in experiment [4] and 13.34 mg/L (≈ 38.7 µM) in [6]. Moreover, in experiment [2], the “IC50/72 h on promastigotes” value was 18.30 mg/L (≈ 53.1 µM). Moreover, the “damage to the mitochondria” value in experiment [3] is “marked swelling and branching”. In addition, the “changes in the mitochondrial morphology” value in experiment [5] is “marked swelling”.

On to `CC(=O)C1=C([O-])C=C2Oc3c(C(C)=O)c(O)c(C)c(O)c3C2(C)C1=O.CC(=O)C1=C([O-])C=C2Oc3c(C(C)=O)c(O)c(C)c(O)c3C2(C)C1=O.CC(=O)C1=C([O-])C=C2Oc3c(C(C)=O)c(O)c(C)c(O)c3C2(C)C1=O.O.O.O.[Eu+3]` (centres unmarked) [EuL3·3H2O 4], for which the results for the TMRE-labeled promastigotes in experiment [7] (48 h after treatment at the calculated IC50) and in experiment [7] (72 h after treatment at the calculated IC50) were 79.9% and 80.6%, respectively. Besides, the IC50 in experiment [8] (BALB/c peritoneal macrophages, 24 h, Giemsa count, read-out: L. amazonensis Intracellular Amastigotes (Ama.) IC50) was 2.98 µM; in experiment [11] it was 0.2 µM; with NIH/3T3 fibroblasts it was 20.1 µM. Besides, the “IC50 on intracellular amastigotes” value in experiment [8] (converted from µM) amounted to 3.687 mg/L. The 7-AAD-stained parasites in experiment [9] (24 h) is reported as 0.5%; in experiment [9] (48 h), 1.0%; in experiment [9] (72 h), 6.0%. Moreover, the “An. (PE Annexin V-stained parasites)” value in experiment [9] (24 h) was determined as 0.6%; in experiment [9] (48 h), 1.3%; in experiment [9] (72 h) it was 1.9%. Further, the entries for the “An./7-AAD (double stained parasites)” value in experiment [9] (24 h), in experiment [9] (48 h) and in [9] (72 h) were 0.7%, 2.3% and 8.1%, respectively. Further, the figures for the “Unst. (unstained parasites)” value in [9] (24 h), in experiment [9] (48 h) and in experiment [9] (72 h) were 98.2%, 95.4% and 84.0%, respectively. Further, the “NO release from infected macrophages” value in experiment [10] is reported as “strongest effect”; in experiment [10] (listed as EuL3·3H2O), “triggered NO release”.
